Test results from ChEMBL document CHEMBL3232889, “Identification of novel SIRT2-selective inhibitors using a click chemistry approach” (Bioorg Med Chem Lett, 2014).
Active and inactive are the calls of the source.

target: T1, NAD-dependent protein deacetylase sirtuin-3, mitochondrial (Homo sapiens, UniProt Q9NTG7); test: Inhibition of human recombinant SIRT3 using Fluor-de-Lys as substrate incubated for 60 mins prior to substrate addition measured after 60 mins by fluorometric analysis; conditions: not given
T1 sequence (Q9NTG7 whole entry): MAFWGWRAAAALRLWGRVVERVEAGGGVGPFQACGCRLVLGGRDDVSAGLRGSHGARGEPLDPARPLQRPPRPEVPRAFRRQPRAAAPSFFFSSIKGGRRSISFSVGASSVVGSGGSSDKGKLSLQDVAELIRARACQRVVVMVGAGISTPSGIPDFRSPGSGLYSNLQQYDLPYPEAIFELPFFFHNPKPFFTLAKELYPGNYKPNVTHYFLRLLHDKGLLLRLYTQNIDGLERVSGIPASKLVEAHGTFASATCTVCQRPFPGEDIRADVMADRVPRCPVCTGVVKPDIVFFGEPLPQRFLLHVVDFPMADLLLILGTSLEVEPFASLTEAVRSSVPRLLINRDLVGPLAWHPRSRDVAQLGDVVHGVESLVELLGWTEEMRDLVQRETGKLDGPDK

| Compound | IC50 [µM] |
| --- | --- |
| NC(=O)c1ccccc1Nc1ccc(-c2cn(Cc3ccccc3)nn2)cc1 | > 100 |
| NC(=O)c1ccccc1Nc1cccc(-c2cn(CCC3CCCC3)nn2)c1 | > 100 |

target: T2, NAD-dependent protein deacetylase sirtuin-1 (Homo sapiens) (UniProt Q96EB6); test: Inhibition of human recombinant SIRT1 using Fluor-de-Lys as substrate at 10 uM incubated for 60 mins prior to substrate addition measured after 60 mins by fluorometric analysis; conditions: not given
T2 sequence (whole entry): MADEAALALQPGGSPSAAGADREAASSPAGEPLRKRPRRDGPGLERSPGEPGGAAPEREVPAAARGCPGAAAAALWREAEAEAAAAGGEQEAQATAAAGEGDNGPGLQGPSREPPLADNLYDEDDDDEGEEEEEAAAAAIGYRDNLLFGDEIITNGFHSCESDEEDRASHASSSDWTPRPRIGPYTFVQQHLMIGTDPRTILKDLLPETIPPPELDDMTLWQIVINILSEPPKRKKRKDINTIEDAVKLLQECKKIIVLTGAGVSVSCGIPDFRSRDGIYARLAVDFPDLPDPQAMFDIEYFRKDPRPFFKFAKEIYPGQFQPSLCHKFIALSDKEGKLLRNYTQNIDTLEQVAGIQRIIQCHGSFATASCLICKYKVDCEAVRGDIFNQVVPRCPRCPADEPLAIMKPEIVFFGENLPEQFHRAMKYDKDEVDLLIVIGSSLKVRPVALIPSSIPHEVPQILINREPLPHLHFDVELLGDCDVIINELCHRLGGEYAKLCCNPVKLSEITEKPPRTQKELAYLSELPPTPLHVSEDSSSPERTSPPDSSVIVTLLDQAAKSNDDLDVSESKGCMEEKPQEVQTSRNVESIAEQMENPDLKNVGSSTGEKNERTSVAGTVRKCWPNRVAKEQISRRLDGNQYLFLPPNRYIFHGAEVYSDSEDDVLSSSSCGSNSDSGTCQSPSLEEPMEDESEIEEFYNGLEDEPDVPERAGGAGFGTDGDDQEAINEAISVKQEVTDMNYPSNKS

| Compound | inhibition |
| --- | --- |
| NC(=O)c1ccccc1Nc1ccc(-c2cn(Cc3ccccc3)nn2)cc1 | inactive |
| NC(=O)c1ccccc1Nc1cccc(-c2cn(CCC3CCCC3)nn2)c1 | inactive |

target: T3, NAD-dependent protein deacetylase sirtuin-3, mitochondrial (Homo sapiens) (UniProt Q9NTG7); test: Inhibition of human recombinant SIRT3 using Fluor-de-Lys as substrate at 10 uM incubated for 60 mins prior to substrate addition measured after 60 mins by fluorometric analysis; conditions: not given
T3 sequence (whole entry): T1 sequence (Q9NTG7 whole entry)

| Compound | inhibition |
| --- | --- |
| NC(=O)c1ccccc1Nc1ccc(-c2cn(Cc3ccccc3)nn2)cc1 | inactive |
| NC(=O)c1ccccc1Nc1cccc(-c2cn(CCC3CCCC3)nn2)c1 | inactive |

target: T4, NAD-dependent protein deacetylase sirtuin-2 (Homo sapiens, UniProt Q8IXJ6); test: Inhibition of human recombinant SIRT2 using Fluor-de-Lys as substrate incubated for 60 mins prior to substrate addition measured after 60 mins by fluorometric analysis; conditions: not given
T4 sequence (Q8IXJ6 whole entry): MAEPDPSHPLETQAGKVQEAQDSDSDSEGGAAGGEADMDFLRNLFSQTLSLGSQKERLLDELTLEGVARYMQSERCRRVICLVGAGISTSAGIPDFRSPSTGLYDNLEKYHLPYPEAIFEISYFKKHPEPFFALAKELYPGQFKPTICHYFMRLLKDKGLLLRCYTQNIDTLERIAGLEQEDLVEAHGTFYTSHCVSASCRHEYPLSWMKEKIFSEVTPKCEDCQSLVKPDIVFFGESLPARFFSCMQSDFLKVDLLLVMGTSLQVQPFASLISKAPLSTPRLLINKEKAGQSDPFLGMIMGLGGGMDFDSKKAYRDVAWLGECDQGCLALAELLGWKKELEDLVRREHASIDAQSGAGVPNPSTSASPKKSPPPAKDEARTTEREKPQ

| Compound | IC50 [µM] |
| --- | --- |
| NC(=O)c1ccccc1Nc1ccc(-c2cn(Cc3ccccc3)nn2)cc1 | 6.3 |
| NC(=O)c1ccccc1Nc1cccc(-c2cn(CCC3CCCC3)nn2)c1 | 5.3 |

target: T5, NAD-dependent protein deacetylase sirtuin-1 (Homo sapiens, UniProt Q96EB6); test: Inhibition of human recombinant SIRT1 using Fluor-de-Lys as substrate incubated for 60 mins prior to substrate addition measured after 60 mins by fluorometric analysis; conditions: not given
T5 sequence (Q96EB6 whole entry): T2 sequence (whole entry)

| Compound | IC50 [µM] |
| --- | --- |
| NC(=O)c1ccccc1Nc1ccc(-c2cn(Cc3ccccc3)nn2)cc1 | > 100 |
| NC(=O)c1ccccc1Nc1cccc(-c2cn(CCC3CCCC3)nn2)c1 | > 100 |

target: T6, NAD-dependent protein deacetylase sirtuin-2 (Homo sapiens) (UniProt Q8IXJ6); conditions: at 10 µM
T6 sequence (whole entry): T4 sequence (Q8IXJ6 whole entry)
Description: Inhibition of human recombinant SIRT2 using Fluor-de-Lys as substrate at 10 uM incubated for 60 mins prior to substrate addition measured after 60 mins by fluorometric analysis

| Compound | inhibition |
| --- | --- |
| [N-]=[N+]=Nc1ccccc1 | Active |
| [N-]=[N+]=NCCc1cccc2ccccc12 | Active |
| NC(=O)c1ccccc1Nc1ccc(-c2cn(Cc3ccccc3)nn2)cc1 | Active |
| [N-]=[N+]=NCCc1ccccn1 | Active |
| [N-]=[N+]=NCC12CC3CC(CC(C3)C1)C2 | Active |
| [N-]=[N+]=NCCc1ccc(F)cc1 | Active |
| [N-]=[N+]=Nc1ccc(O)cc1 | Active |
| [N-]=[N+]=NCCc1cccc(C(F)(F)F)c1 | Active |
| [N-]=[N+]=NCCC1CCCCC1 | Active |
| [N-]=[N+]=NCCc1ccccc1 | Active |
| [N-]=[N+]=NC[S+]([O-])c1ccccc1 (stereo unspecified) | Active |
| [N-]=[N+]=Nc1ccc(F)cc1 | Active |
| [N-]=[N+]=NCCC12CC3CC(CC(C3)C1)C2 | Active |
| [N-]=[N+]=NCc1ccc(-c2ccccc2)cc1 | Active |
| N#C/C(=C\c1ccc(-c2cc(Cl)ccc2Cl)o1)C(=O)Nc1cccc2ncccc12 | Active |
| COc1ccc(CN=[N+]=[N-])cc1 | Active |
| [N-]=[N+]=NCCc1cccc(F)c1 | Active |
| Cc1ccc(CCN=[N+]=[N-])cc1 | Active |
| [N-]=[N+]=NCCc1ccccc1[N+](=O)[O-] | Active |
| Cc1cccc(CCN=[N+]=[N-])c1 | Active |
| [N-]=[N+]=NCCc1c[nH]c2ccccc12 | Active |

| Compound | inhibition |
| --- | --- |
| COc1ccccc1CCN=[N+]=[N-] | Active |
| Cc1cccc(C)c1NC(=O)CN=[N+]=[N-] | Active |
| Cc1ccccc1CCN=[N+]=[N-] | Active |
| [N-]=[N+]=NCC(=O)Nc1ccc(F)cc1 | Active |
| [N-]=[N+]=NCCc1ccccc1Cl | Active |
| [N-]=[N+]=Nc1ccc(Br)cc1 | Active |
| [N-]=[N+]=NCc1ccccc1 | Active |
| [N-]=[N+]=NCc1ccc2ccccc2c1 | Active |
| [N-]=[N+]=NCCc1cccc(Cl)c1 | Active |
| Cc1ncsc1CCN=[N+]=[N-] | Active |
| [N-]=[N+]=NCS(=O)(=O)c1ccccc1 | Active |
| [N-]=[N+]=NCCc1ccc([N+](=O)[O-])cc1 | Active |
| [N-]=[N+]=Nc1ccc(N)cc1 | Active |
| [N-]=[N+]=NCCN1CCOCC1 | Active |
| [N-]=[N+]=NCc1cccc(-c2ccccc2)c1 | Active |
| [N-]=[N+]=NCCc1ccccc1F | Active |
| COc1cccc(CCN=[N+]=[N-])c1 | Active |
| C#Cc1cccc(Nc2ccccc2C(N)=O)c1 | Active |
| NC(=O)c1ccccc1Nc1cccc(-c2cn(CCC3CCCC3)nn2)c1 | Active |
| [N-]=[N+]=NCSc1ccccc1 | Active |
| C#Cc1ccc(Nc2ccccc2C(N)=O)cc1 | Active |

| Compound | inhibition |
| --- | --- |
| [N-]=[N+]=NCCCc1ccccc1 | Active |
| Cc1ccc(N=[N+]=[N-])cc1 | Active |
| Cc1ccc(N=[N+]=[N-])cc1C | Active |
| [N-]=[N+]=NCCC1CCCC1 | Active |
| [N-]=[N+]=NCC(=O)c1ccccc1 | Active |
| [N-]=[N+]=Nc1ccc(I)cc1 | Active |
| [N-]=[N+]=NCCCCCc1ccccc1 | Active |
| [N-]=[N+]=NCCc1ccc(Cl)cc1 | Active |
| [N-]=[N+]=Nc1ccccc1-c1ccccc1 | Active |
| [N-]=[N+]=NCCc1ccc2ccccc2c1 | Active |
| [N-]=[N+]=NCC1CCCCC1 | Active |
| [N-]=[N+]=N/C=C/c1ccccc1 | Active |
| [N-]=[N+]=NCc1cccc2ccccc12 | Active |
| [N-]=[N+]=NCCc1ccc(C(F)(F)F)cc1 | Active |
| COc1ccc(N=[N+]=[N-])cc1 | Active |
| [N-]=[N+]=Nc1cccc2ccccc12 | Active |
| COc1ccc(CCN=[N+]=[N-])cc1 | Active |
| [N-]=[N+]=NCCc1ccccc1C(F)(F)F | Active |
| [N-]=[N+]=NCCc1ccsc1 | Active |
